Experimental data reported in patent publication US10047104B2, “Bicyclic heterocyclyl derivatives as IRAK4 inhibitors” (Aurigene Discovery Technologies Limited, priority 2014, dated 2018).
Counter-ions that a name gives are not always drawn.

Target: T1, recombinant IRAK-4 kinase (Homo sapiens, UniProt Q9NWZ3)
T1 construct: purchased Millipore, USA
T1 sequence (Q9NWZ3 1-460): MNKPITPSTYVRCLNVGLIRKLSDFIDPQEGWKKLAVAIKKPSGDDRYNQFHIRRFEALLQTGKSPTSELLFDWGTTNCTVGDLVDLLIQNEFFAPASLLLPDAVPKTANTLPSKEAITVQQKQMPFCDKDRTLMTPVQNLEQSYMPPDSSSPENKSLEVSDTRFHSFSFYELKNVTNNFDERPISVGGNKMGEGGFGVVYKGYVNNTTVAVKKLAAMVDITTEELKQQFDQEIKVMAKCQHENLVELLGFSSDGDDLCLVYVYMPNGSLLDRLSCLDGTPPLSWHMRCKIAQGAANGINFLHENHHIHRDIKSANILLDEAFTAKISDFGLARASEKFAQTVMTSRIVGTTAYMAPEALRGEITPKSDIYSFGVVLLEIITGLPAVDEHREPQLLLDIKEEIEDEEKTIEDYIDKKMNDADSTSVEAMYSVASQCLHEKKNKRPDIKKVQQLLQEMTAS
Assay: IRAK-4 Biochemical Assay (TR-FRET)
Details: 5 ng IRAK-4 kinase, 100 nM Biotin Histone H3, 20 μM ATP, 30 minutes pre-incubation, read-out: IC50 values for IRAK4 activity
Procedure: Compounds were tested for their potential to inhibit IRAK-4 enzyme in a TR-FRET assay using recombinant IRAK-4 kinase from Millipore, USA. The assay buffer was 50 mM Tris-HCl pH 7.5, 20 mM MgCl2, 1 mM EGTA, 2 mM DTT, 3 mM MnCl2 and 0.01% Tween20. 5 ng of IRAK-4 kinase was used for the assay. After pre-incubation of enzyme with test compound for 30 minutes at room temperature, a substrate mix containing 100 nM Biotin Histone H3 (Millipore, USA) and 20 μM ATP (Sigma, USA) was added and the reaction was incubated for 30 minutes. Post incubation, the reaction was stopped by the addition of stop mix containing 40 mM EDTA, 1 nM of Europium-Anti-Phospho-Histone H3 (Ser10) antibody (Perkin Elmer, USA) and 20 nM Sure Light Allophycocyanin-Streptavidin (Perkin Elmer, USA).

Row | SMILES | IC50 [nM]
1 | O=C(Nc1cc2oc(N3CCCCC3)nc2nc1N1CCCCC1)c1coc(-c2cccnc2O)n1 [Example 28, N-(2,5-di(piperidin-1-yl)oxazolo[4,5-b]pyridin-6-yl)-2-(2-hydroxypyridin-3-yl)oxazole-4-carboxamide] | > 100
2 | O=C(Nc1cc2oc(N3CCCCC3)nc2nc1N1CCCCC1)c1coc(-c2ccc(O)nc2)n1 [Example 30, N-(2,5-di(piperidin-1-yl)oxazolo[4,5-b]pyridin-6-yl)-2-(6-hydroxypyridin-3-yl)oxazole-4-carboxamide] | > 100
3 | N[C@H]1CCN(c2nc(C(=O)Nc3cc4oc(N5CCOCC5)nc4nc3N3CCCCC3)co2)C1 [Example 42, (S)-2-(3-aminopyrrolidin-1-yl)-N-(2-morpholino-5-(piperidin-1-yl)oxazolo[4,5-b]pyridin-6-yl)oxazole-4-carboxamide] | 50 to 100
4 | Cc1cc(-c2nc(C(=O)Nc3cc4oc(N5CCCC5)nc4nc3N3CCCCC3)co2)ccn1 [Example 48, 2-(2-methylpyridin-4-yl)-N-(5-(piperidin-1-yl)-2-(pyrrolidin-1-yl)oxazolo[4,5-b]pyridin-6-yl)oxazole-4-carboxamide hydrochloride] | > 100
5 | O=C(Nc1cc2sc(N3CCOCC3)nc2nc1N1CCCCC1)c1coc(-c2cccnc2O)n1 [Example 55, 2-(2-hydroxypyridin-3-yl)-N-(2-morpholino-5-(piperidin-1-yl)thiazolo[4,5-b]pyridin-6-yl)oxazole-4-carboxamide] | < 50
6 | COc1cc(-c2nc(C(=O)Nc3cc4sc(N5CCCCC5)nc4nc3N3CCCCC3)co2)ccn1 [Example 56, N-(2,5-di(piperidin-1-yl)thiazolo[4,5-b]pyridin-6-yl)-2-(2-methoxypyridin-4-yl)oxazole-4-carboxamide] | < 50
7 | COc1ccc(-c2nc(C(=O)Nc3cc4sc(N5CCOCC5)nc4nc3N3CCCCC3)co2)cn1 [Example 57, 2-(6-methoxypyridin-3-yl)-N-(2-morpholino-5-(piperidin-1-yl)thiazolo[4,5-b]pyridin-6-yl)oxazole-4-carboxamide] | < 50
8 | COc1cc(-c2nc(C(=O)Nc3cc4sc(N5CCOCC5)nc4nc3N3CCCCC3)co2)ccn1 [Example 58, 2-(2-methoxypyridin-4-yl)-N-(2-morpholino-5-(piperidin-1-yl)thiazolo[4,5-b]pyridin-6-yl)oxazole-4-carboxamide] | < 50
9 | Cc1cc(-c2nc(C(=O)Nc3cc4sc(N5CCOCC5)nc4nc3N3CCC[C@H](F)C3)co2)ccn1 [Example 59, (S)—N-(5-(3-fluoropiperidin-1-yl)-2-morpholinothiazolo[4,5-b]pyridin-6-yl)-2-(2-methylpyridin-4-yl)oxazole-4-carboxamide] | < 50
10 | Cc1ccc(-c2nc(C(=O)Nc3cc4sc(N5CCOCC5)nc4nc3N3CCCCC3)co2)cn1 [Example 60, 2-(6-methylpyridin-3-yl)-N-(2-morpholino-5-(piperidin-1-yl)thiazolo[4,5-b]pyridin-6-yl)oxazole-4-carboxamide] | < 50
11 | Cc1cnccc1-c1nc(C(=O)Nc2cc3sc(N4CCOCC4)nc3nc2N2CCCCC2)co1 [Example 61, 2-(3-methylpyridin-4-yl)-N-(2-morpholino-5-(piperidin-1-yl)thiazolo[4,5-b]pyridin-6-yl)oxazole-4-carboxamide] | < 50
12 | N[C@H]1CCN(c2cccc(C(=O)Nc3cc4sc(N5CCOCC5)nc4nc3N3CCCCC3)n2)C1 [Example 62, (S)-6-(3-aminopyrrolidin-1-yl)-N-(2-morpholino-5-(piperidin-1-yl)thiazolo[4,5-b]pyridin-6-yl)picolinamide] | < 50
13 | O=C(Nc1cc2sc(N3CCOCC3)nc2nc1N1CCCCC1)c1cccc(N2CC[C@H](O)C2)n1 [Example 63, (S)-6-(3-hydroxypyrrolidin-1-yl)-N-(2-morpholino-5-(piperidin-1-yl)thiazolo[4,5-b]pyridin-6-yl)picolinamide] | < 50
14 | N[C@H]1CCN(c2cccc(C(=O)Nc3cc4sc(N5CCCCC5)nc4nc3N3CCCCC3)n2)C1 [Example 64, (S)-6-(3-aminopyrrolidin-1-yl)-N-(2,5-di(piperidin-1-yl)thiazolo[4,5-b]pyridin-6-yl)picolinamide] | < 50
15 | O=C(Nc1cc2sc(N3CCCCC3)nc2nc1N1CCCCC1)c1cccc(N2CC[C@H](O)C2)n1 [Example 65, (S)—N-(2,5-di(piperidin-1-yl)thiazolo[4,5-b]pyridin-6-yl)-6-(3-hydroxypyrrolidin-1-yl)picolinamide] | < 50

Results, then the compound that gave them:

Row | IC50 [nM] | SMILES
16 | < 50 | Cc1cc(-c2nc(C(=O)Nc3cc4oc(N5CCOCC5)nc4nc3N3CCN(C)CC3)co2)ccn1 [Example 25, N-(5-(4-methylpiperazin-1-yl)-2-morpholinooxazolo[4,5-b]pyridin-6-yl)-2-(2-methylpyridin-4-yl)oxazole-4-carboxamide]
17 | < 50 | COc1ccc(-c2nc(C(=O)Nc3cc4oc(N5CCCCC5)nc4nc3N3CCCCC3)co2)cn1 [Example 26, N-(2,5-di(piperidin-1-yl)oxazolo[4,5-b]pyridin-6-yl)-2-(6-methoxypyridin-3-yl)oxazole-4-carboxamide]
18 | < 50 | Cc1ncccc1-c1nc(C(=O)Nc2cc3oc(N4CCCCC4)nc3nc2N2CCCCC2)co1 [Example 27, N-(2,5-di(piperidin-1-yl)oxazolo[4,5-b]pyridin-6-yl)-2-(2-methylpyridin-3-yl)oxazole-4-carboxamide]
19 | < 50 | O=C(Nc1cc2oc(N3CCOCC3)nc2nc1N1CCCCC1)c1coc(-c2cccnc2O)n1 [Example 29, 2-(2-hydroxypyridin-3-yl)-N-(2-morpholino-5-(piperidin-1-yl)oxazolo[4,5-b]pyridin-6-yl)oxazole-4-carboxamide]
20 | < 50 | Cc1ncccc1-c1nc(C(=O)Nc2cc3oc(N4CCOCC4)nc3nc2N2CCCCC2)co1 [Example 32, 2-(2-methylpyridin-3-yl)-N-(2-morpholino-5-(piperidin-1-yl)oxazolo[4,5-b]pyridin-6-yl)oxazole-4-carboxamide]
21 | < 50 | Cc1cnccc1-c1nc(C(=O)Nc2cc3oc(N4CCOCC4)nc3nc2N2CCCCC2)co1 [Example 33, 2-(3-methylpyridin-4-yl)-N-(2-morpholino-5-(piperidin-1-yl)oxazolo[4,5-b]pyridin-6-yl)oxazole-4-carboxamide]
22 | < 50 | Cc1cnccc1-c1nc(C(=O)Nc2cc3oc(N4CCCCC4)nc3nc2N2CCCCC2)co1 [Example 34, N-(2,5-di(piperidin-1-yl)oxazolo[4,5-b]pyridin-6-yl)-2-(3-methylpyridin-4-yl)oxazole-4-carboxamide]
23 | < 50 | Cc1ccc(-c2nc(C(=O)Nc3cc4oc(N5CCOCC5)nc4nc3N3CCCCC3)co2)cn1 [Example 35, 2-(6-methylpyridin-3-yl)-N-(2-morpholino-5-(piperidin-1-yl)oxazolo[4,5-b]pyridin-6-yl)oxazole-4-carboxamide]
24 | < 50 | Cc1ccc(-c2nc(C(=O)Nc3cc4oc(N5CCCCC5)nc4nc3N3CCCCC3)co2)cn1 [Example 37, N-(2,5-di(piperidin-1-yl)oxazolo[4,5-b]pyridin-6-yl)-2-(6-methylpyridin-3-yl)oxazole-4-carboxamide]
25 | < 50 | N[C@H]1CCN(c2nc(C(=O)Nc3cc4oc(N5CCOCC5)nc4nc3C3CC3)co2)C1 [Example 47, (S)-2-(3-aminopyrrolidin-1-yl)-N-(5-cyclopropyl-2-morpholinooxazolo[4,5-b]pyridin-6-yl)oxazole-4-carboxamide]
26 | < 50 | Cn1cc(-c2cccc(C(=O)Nc3cc4sc(N5CCCCC5)nc4nc3N3CCCCC3)n2)cn1 [Example 50, N-(2,5-di(piperidin-1-yl)thiazolo[4,5-b]pyridin-6-yl)-6-(1-methyl-1H-pyrazol-4-yl)picolinamide hydrochloride]
27 | < 50 | Cn1cc(-c2cccc(C(=O)Nc3cc4sc(N5CCOCC5)nc4nc3N3CCCCC3)n2)cn1 [Example 51, 6-(1-methyl-1H-pyrazol-4-yl)-N-(2-morpholino-5-(piperidin-1-yl)thiazolo[4,5-b]pyridin-6-yl)picolinamide]
28 | < 50 | Cc1ncccc1-c1nc(C(=O)Nc2cc3sc(N4CCCCC4)nc3nc2N2CCCCC2)co1 [Example 52, N-(2,5-di(piperidin-1-yl)thiazolo[4,5-b]pyridin-6-yl)-2-(2-methylpyridin-3-yl)oxazole-4-carboxamide hydrochloride]
29 | < 50 | Cc1cc(-c2nc(C(=O)Nc3cc4sc(N5C[C@@H](C)O[C@@H](C)C5)nc4nc3N3CCCCC3)co2)ccn1 [Example 53, N-(2-((2S,6R)-2,6-dimethylmorpholino)-5-(piperidin-1-yl)thiazolo[4,5-b]pyridin-6-yl)-2-(2-methylpyridin-4-yl)oxazole-4-carboxamide]
30 | < 50 | Cc1ncccc1-c1nc(C(=O)Nc2cc3sc(N4CCOCC4)nc3nc2N2CCCCC2)co1 [Example 54, 2-(2-methylpyridin-3-yl)-N-(2-morpholino-5-(piperidin-1-yl)thiazolo[4,5-b]pyridin-6-yl)oxazole-4-carboxamide]
